Assay results reported in ChEMBL document CHEMBL1130650, “Nitroglycosylated meso-arylporphyrins as photoinhibitors of gram positive bacteria” (1998).
≈ marks a conversion by molar mass, not a printed value. Calls of active or inactive are those of the source. The calls are words filed in the database; no cut-off is given here. Where a SMILES comes first, the peptide text is derived from it. Bridges are numbered along the chain shown (N, C = ends). [ ]: non-standard residue; d: D form. The star is where a group is joined. NMePhe(4-NMe2) = CN[C@@H](Cc1ccc(N(C)C)cc1)C(=O)O; Pip(4-oxo) = O=C1CCN[C@H](C(=O)O)C1; Picolinoyl(3-OH) = O=C(c1ncccc1O)*; Phg = N[C@H](C(=O)O)c1ccccc1; dAbu = CC[C@@H](N)C(=O)O

Experiments:
[1] = tested on: Staphylococcus aureus; experiment: Compound was tested for photoinhibition of Staphylococcus aureus(CIP 53156); […]; type: functional, organism-based
[2] = tested on: Escherichia coli; experiment: Compound was tested for photoinhibition of Escherichia coli (CIP 548T); Partially resistant; type: functional, organism-based
[3] = tested on: Staphylococcus aureus; experiment: Compound was tested for photoinhibition of Staphylococcus aureus(CIP 53156); type: functional, organism-based
[4] = tested on: Staphylococcus aureus; experiment: Compound was tested for photoinhibition of Staphylococcus aureus(CIP 53156); Sensitive; type: functional, organism-based
[5] = tested on: Escherichia coli; experiment: Compound was tested for photoinhibition of Escherichia coli (CIP 548T); Resistant; type: functional, organism-based
[6] = tested on: Escherichia coli; experiment: Compound was tested for photoinhibition of Escherichia coli (CIP 548T); Sensitive; type: functional, organism-based
[7] = tested on: Staphylococcus aureus; experiment: Compound was tested for antibacterial activity against Staphylococcus aureus CIP 53156; type: functional
[8] = tested on: Staphylococcus aureus; experiment: Compound was tested for photoinhibition of Staphylococcus aureus(CIP 53156); Partially resistant; type: functional, organism-based

| SMILES | Antibiotic resistance [4] | Antibiotic resistance [6] | further results |
| --- | --- | --- | --- |
| CCn1cc(C(=O)O)c(=O)c2ccc(C)nc21 |  |  | Antibiotic resistance [1]: Resistant |
| CC(=O)OCC1=C(C(=O)O)N2C(=O)[C@@H](NC(=O)Cc3cccs3)[C@H]2SC1 |  |  | Antibiotic resistance [2]: Partially resistant; Antibiotic resistance [3]: Partially resistant |
| CN[C@H](CC(C)C)C(=O)N[C@H]1C(=O)N[C@@H](CC(N)=O)C(=O)N[C@H]2C(=O)N[C@H]3C(=O)N[C@H](C(=O)N[C@H](C(=O)O)c4cc(O)cc(O)c4-c4cc3ccc4O)[C@H](O)c3ccc(c(Cl)c3)Oc3cc2cc(c3O[C@@H]2O[C@H](CO)[C@@H](O)[C@H](O)[C@H]2O[C@H]2C[C@](C)(N)[C@H](O)[C@H](C)O2)Oc2ccc(cc2Cl)[C@H]1O | Sensitive |  |  |
| CC[C@H]1NC(=O)[C@@H](NC(=O)c2ncccc2O)[C@@H](C)OC(=O)[C@H](c2ccccc2)NC(=O)[C@@H]2CC(=O)CCN2C(=O)[C@H](Cc2ccc(N(C)C)cc2)N(C)C(=O)[C@@H]2CCCN2C1=O ({Picolinoyl(3-OH)}-T[dAbu]P[NMePhe(4-NMe2)][Pip(4-oxo)][Phg]; ester 1-C) |  |  | Antibiotic resistance [5]: Resistant |
| CN(C)[C@@H]1C(O)=C(C(N)=O)C(=O)[C@@]2(O)C(O)=C3C(=O)c4c(O)cccc4[C@@](C)(O)[C@H]3C[C@@H]12 | Active | Active |  |
| CC[C@H]1OC(=O)[C@H](C)[C@@H](O[C@H]2C[C@@](C)(OC)[C@@H](O)[C@H](C)O2)[C@H](C)[C@@H](O[C@@H]2O[C@H](C)C[C@H](N(C)C)[C@H]2O)[C@](C)(O)C[C@@H](C)C(=O)[C@H](C)[C@@H](O)[C@]1(C)O | Partially resistant |  | Antibiotic resistance [2]: Partially resistant |
| CN[C@@H]1[C@H](O[C@H]2[C@H](O[C@H]3[C@H](O)[C@@H](O)[C@H](N=C(N)N)[C@@H](O)[C@@H]3N=C(N)N)O[C@@H](C)[C@]2(O)C=O)O[C@@H](CO)[C@H](O)[C@H]1O | Sensitive | Sensitive |  |
| O=[N+]([O-])c1ccc(-c2c3nc(c(-c4ccc(OC[C@H]5O[C@H](O)[C@H](O)[C@@H](O)[C@@H]5O)cc4)c4nc(c(-c5ccc(OC[C@H]6O[C@H](O)[C@H](O)[C@@H](O)[C@@H]6O)cc5)c5ccc([nH]5)c(-c5ccc(OC[C@H]6O[C@H](O)[C@H](O)[C@@H](O)[C@@H]6O)cc5)c5ccc2[nH]5)C=C4)C=C3)cc1 |  |  | CI50 [7]: 10 µg/mL (≈ 8.37 µM) |
| CO[C@H]1/C=C/O[C@@]2(C)Oc3c(C)c(O)c4c(O)c(c(/C=N/N5CCN(C)CC5)c(O)c4c3C2=O)NC(=O)/C(C)=C\C=C\[C@H](C)[C@H](O)[C@@H](C)[C@@H](O)[C@@H](C)[C@H](OC(C)=O)[C@@H]1C | Sensitive | Sensitive |  |
| NC[C@H]1O[C@H](O[C@H]2[C@H](O)[C@@H](O[C@H]3O[C@H](CO)[C@@H](O)[C@H](N)[C@H]3O)[C@H](N)C[C@@H]2N)[C@H](O)[C@@H](O)[C@@H]1O | Sensitive |  |  |
| O=C(N[C@H](CO)[C@H](O)c1ccc([N+](=O)[O-])cc1)C(Cl)Cl |  | Partially resistant | Antibiotic resistance [8]: Partially resistant |
| Nc1ccc(S(N)(=O)=O)cc1 | Sensitive | Sensitive |  |
| CC1(C)S[C@@H]2[C@H](NC(=O)Cc3ccccc3)C(=O)N2[C@H]1C(=O)O | Sensitive |  |  |
| CC1(C)S[C@@H]2[C@H](NC(=O)[C@H](N)c3ccc(O)cc3)C(=O)N2[C@H]1C(=O)O |  | Sensitive |  |
